Data from patent publication US10220033B2, “Substituted benzoxazepine for cancer therapy” (University of Cape Town, priority 2014, dated 2019).
Read-outs that look alike come from different tables or passages of the source.

Assays:
Type in all cases: cell-based
Cytochrome C release = experiment: Mitochondrial and cytoplasmic protein extraction, Cytochrome C Western Blot; conditions: varying concentrations, 24 hours (FIG. 27)
Procedure: Cells were grown in 10 cm plates and treated with varying concentrations of Compound A for 24 hours. Cells were lysed in subcellular fractionation buffer (250 mM sucrose, 20 mM HEPES, 10 mM KCl, 1.5 mM MgCl2, 1 mM EDTA, 1 mM EGTA, 1 mM DTT and 1× complete protease inhibitor cocktail (Roche)), passed through a 25G needle and incubated on ice for 20 minutes. The nuclear pellet was obtained after centrifugation at 720 g for 5 minutes. The supernantant was further centrifuged at 10,000 g and the resulting supernatant used as the cytoplasmic fraction. The pellet containing the mitochondrial fraction was washed in subcellular fractionation buffer and passed through a 25G needle. The mitochondrial fraction was pelleted at 10,000 g and resuspended in RIPA buffer. Western Blot analysis was performed using a mouse anti-Cytochrome C antibody (BD Pharmingen, San Diego, Calif.), and anti-β-tubulin (H235) (sc-9104, Santa Cruz) and anti-Pereroxiredoxin-3 (PRDX-3) (P1247, Sigma) antibodies were used as protein loading controls for cytoplasmic and mitochondrial fractions, respectively.

[1] = system: non-cancer fibroblast cells; experiment: MTT cell viability, summary statement for non-cancer cells
Procedure: (§1) Cells were plated in 96-well plates and treated with varying concentrations of a test compound for 48 hours, after which MTT dye, 3-(4,5-dimethylthiazol-2-yl)-2,5-diphenyltetrazolium bromide (Sigma), was added, and crystals solubilised 4 hours later using Solubilisation Reagent (10% SLS in 0.01 M HCl). Absorbencies were measured at 595 nm the following day using a BioTek microplate spectrophotometer (Winooski, Vt., USA) and IC50 curves were generated using GraphPad Prism.

[2] = system: CaSki, HeLa, KYSE30 and WHCO6 cancer cells; experiment: Cell proliferation assay (MTT), cancer cells
Procedure: (§2) To assay for cell proliferation after Compound A treatment, 5000 cells/well were plated in 96-well plates and treated with 5, 10 or 15 μM Compound A, after which cell proliferation was monitored every 24 hours for four days, using MTT.
(§3) This effect was sustained for the full 5 day time period, confirming that there was no population of cells that recovered from the treatment.

CaSki cells = experiment: Cell cycle analysis; conditions: 24 hours (FIGS. 24 and 25)
Procedure: CaSki cells were plated in 60 mm dishes and treated with the appropriate concentration of Compound A. Cells were harvested 24 hours after treatment, and fixed in 100% ethanol, after which they were stained with Propidium Iodide and the cell cycle profiles analysed using a BD flow cytometer (BD Biosciences, NJ, USA). Data analysis was performed using ModFit 3.3 software.

[3] = system: NFAT transcriptional activity in NFAT-transfected HeLa cells; experiment: NFAT luciferase reporter assay; conditions: stimulated with TPA and ionomycin (FIGS. 16-20)
Procedure: To assay for NFAT luciferase activity, 30 000 HeLa cells were plated per well in 24-well plates, and transfected with 50 ng GFP-NFAT plasmid (Addgene plasmid #24219, gift of Jerry Crabtree (Beals C R, Clipstone N A, Ho S N, Crabtree G R. Nuclear localization of NF-ATc by a calcineurin-dependent, cyclosporin-sensitive intramolecular interaction. Genes Dev 1997 Apr. 1; 11(7):824-34)), 50 ng NFAT-luciferase (Addgene plasmid #10959, gift of Toren Finkel (Ichida M, Finkel T. Ras regulates NFAT3 activity in cardiac myocytes. J Biol Chem 2001 Feb. 2; 276(5):3524-30)), and 5 ng pRL-TK, using 0.4 μl Genecellin™ Transfection Reagent (Celtic Molecular Diagnostics, South Africa). The NFAT-luciferase reporter plasmid contains three tandem repeats of a 30 bp fragment of the IL-2 promoter known to bind NFAT. The following day cells were treated with 10 or 15 μM Compound A and after an overnight incubation, stimulated with 100 nM TPA (Sigma) and 1.3 μM Ionomycin (Santa Cruz Biotechnology, Santa Cruz, Calif., USA) for 5 hours, following which luciferase activity was measured.
An assay for nuclear NFAT following ionomycin and Compound A treatment was carried out, using an NFAT-luciferase reporter that is activated by nuclear NFAT. The phorbol ester TPA was used to co-stimulate NFAT, as it has been shown previously that TPA and ionomycin elicit synergistic stimulation of NFAT luciferase activity (Northrop J P, Ullman K S, Crabtree G R. Characterization of the nuclear and cytoplasmic components of the lymphoid-specific nuclear factor of activated T cells (NF-AT) complex. J Biol Chem 1993 Feb. 5; 268(4):2917-23).

[4] = system: KYSE150 oesophageal cancer cell line; experiment: MTT assay for cell viability, IC50 determination; conditions: Homo sapiens, KYSE-150; KYSE150; 48 hours, MTT
Procedure: as §1

[5] = MTT assay for cell viability, IC50 determination; conditions: Homo sapiens, MCF-12A; MCF12A; 48 hours, MTT
Procedure: as §1

[6] = system: WHCO6 oesophageal carcinoma cell line; experiment: MTT assay for cell viability, IC50 determination; conditions: Homo sapiens, 48 hours
Procedure: as §1

[7] = system: KYSE30 oesophageal cancer cell line; experiment: MTT assay for cell viability, IC50 determination; conditions: Homo sapiens, KYSE-30, 48 hours
Procedure: as §1

[8] = system: A2780 ovarian cancer cell line; experiment: MTT assay for cell viability, IC50 determination; conditions: Homo sapiens, 48 hours
Procedure: as §1

[9] = system: MDA-MB-231 breast cancer cell line; experiment: MTT assay for cell viability, IC50 determination; conditions: Homo sapiens, 48 hours, MTT
Procedure: as §1

[10] = system: CaSki cervical cancer cell line; experiment: MTT assay for cell viability, IC50 determination; conditions: MTT, read-out: IC50
Procedure: as §1

[11] = system: WHCO1 oesophageal carcinoma cell line; experiment: MTT assay for cell viability, IC50 determination; conditions: Homo sapiens, 48 hours
Procedure: as §1

[12] = system: DMB normal skin fibroblasts (non-cancer); experiment: MTT assay for cell viability, IC50 determination; conditions: Skin fibroblast; DMB non-cancer; 48 hours, MTT
Procedure: as §1

[13] = system: CP70 ovarian cancer cell line; experiment: MTT assay for cell viability, IC50 determination; conditions: 48 hours
Procedure: as §1

[14] = system: WI38 non-cancer cell line; experiment: MTT assay for cell viability, IC50 determination; conditions: Homo sapiens, WI-38; WI38 non-cancer; 48 hours, MTT
Procedure: as §1

[15] = system: FG0 normal skin fibroblasts (non-cancer); experiment: MTT assay for cell viability, IC50 determination; conditions: Skin fibroblast, 48 hours
Procedure: as §1

[16] = system: DMB and FG0 non-cancer fibroblast cells; experiment: Cell proliferation assay (MTT), non-cancer cells
Procedure: as §2, §3

[17] = system: p65 nuclear import (Kpnβ1 cargo protein); experiment: Percentage of nuclear and cytoplasmic p65 (FIG. 4)

CN(C)CCCn1c(N)c(-c2nc3ccccc3[nH]2)c2nc3ccccc3nc21 [Compound A, 3-(1H-benzimidazol-2-yl)-1-(3-dimethylaminopropyl)pyrrolo[5,4-b]quinoxalin-2-amine]
release of Cytochrome C from the mitochondria into the cytoplasm (Cytochrome C release): release of Cytochrome C from the mitochondria into the cytoplasm, in a dose-dependent manner | IC50 [1]: 20 to 30 µM | cell death ([2]; 10 μM (FIG. 22)): 100% | cell death in proliferation assay ([2]; 10 and 15 μM, within 24 hour (FIG. 21 A-D)): complete cell death | percentage of cells in the G1 stage of the cell cycle (CaSki cells): increase | percentage of cells in the S and G2/M stages (CaSki cells): decrease | NFAT activation (NFAT-luciferase reporter) [3]: significantly diminished NFAT activation | IC50 [4]: 11.7 µM | IC50 [5]: 12.7 µM | IC50 [6]: 12 µM | IC50 [7]: 8.84 µM | IC50 [8]: 5.79 µM | IC50 [9]: 7.92 µM | IC50 ([10]; 48 hours): 9.33 µM | IC50 ([10]; Homo sapiens, Ca-Ski, 48 h): 9.33 µM | IC50 [11]: 10.6 µM | IC50 [12]: 31.4 µM | IC50 [13]: 7.7 µM | IC50 [14]: 24 µM | IC50 [15]: 21.4 µM | cell proliferation ([16]; 10 μM (FIGS. 21 E and F)): proliferated relatively normally | time within which cell death occurred ([16]; 15 μM): 24 to 48 h | nuclear import of Kpnβ1 cargo protein (percentage of nuclear p65 relative to cytoplasmic p65) [17]: inhibit the nuclear import of Kpnβ1 cargo protein
